According to article PMC8153426, “EfgA is a conserved formaldehyde sensor that leads to bacterial growth arrest in response to elevated formaldehyde” (PLoS Biology, 2021):

Assays:
EfgA [1] = target: T1, EfgA (Methylorubrum extorquens, UniProt P0DX96); experiment: microscale thermophoresis (Kd), confirmed by mITC; format: binding
T1 construct: recombinant EfgA with C-terminal 6X-His tag
T1 sequence (P0DX96 1-144): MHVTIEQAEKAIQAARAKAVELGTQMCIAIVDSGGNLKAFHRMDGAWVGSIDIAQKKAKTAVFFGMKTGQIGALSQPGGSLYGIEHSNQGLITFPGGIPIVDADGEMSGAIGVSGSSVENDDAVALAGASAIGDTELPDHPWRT
From the text: microscale thermophoresis (Kd), confirmed by mITC on EfgA | MST was used to both independently confirm the interaction of EfgA with formaldehyde and permit calculation of its affinity

EfgA [2] = target: T2, EfgA (Methylorubrum extorquens, UniProt P0DX96); experiment: X-ray crystal structure of formaldehyde-soaked crystals, […] Å; format: binding
T2 construct: N-terminal His-tagged EfgA, homotetramer

[3] = target: the molecule itself; experiment: crystal structure; apo EfgA crystals (0.2 M potassium fluoride, 2.2 M ammonium sulfate, 10°C) and crystals with 16.6 mM formaldehyde (0.2 M KNO3, 2.2 M ammonium sulfate, 10°C); 4 molecules per asymmetric unit

## C=O [formaldehyde]
EfgA [1]
  Kd: 8.01 ± 3.5 mM

## OCOCO [oxydimethanol]
EfgA [2]
  X-ray crystal structure of formaldehyde-soaked crystals, 1.83 Å: In three EfgA monomers, new densities were modeled as oxydimethanol

B1: EfgA (Mext_4158, DUF336 protein) from Methylorubrum extorquens PA1, N-terminal His-tagged derivative (natural protein)
chain: MHVTIEQAEKAIQAARAKAVELGTQMCIAIVDSGGNLKAFHRMDGAWVGSIDIAQKKAKTAVFFGMKTGQIGALSQPGGSLYGIEHSNQGLITFPGGIPIVDADGEMSGAIGVSGSSVENDDAVALAGASAIGDTELPDHPWRT
notes: EfgA, product of Mext_4158 of Methylorubrum extorquens PA1; single-domain 144 amino acid protein with a DUF336 domain; Residue numbers S114, D121, K57 are said to correspond to the native EfgA protein; The simulations count 134 EfgA residues in the structure against 144 in the gene product; also called EfgA^WT; enhanced formaldehyde growth protein A; not shown: His6 (thrombin cleavable), …
[3]
  stoichiometry N: 4
